Reference: patent US4041168A, “Nitroimidazole derivative with antibacterial activity” (Gruppo Lepetit S.p.A., priority 1975, dated 1977)

Tests used:
[1] = toxicity (LD50) per os in mice, substantially according to Lichtfield and Wilcoxon; conditions: mouse, in vivo, po
Protocol: This activity, expressed as an ED50 value, is moreover coupled with a very low toxicity, expressed as an LD50 value, which was determined substantially according to the method described by Lichtfield and Wilcoxon, Journ. Pharm. Exp. Ther., 96, 99, 1949. In representative experiments, the following results have been obtained: […]

Trichomonas vaginalis = assay: in vivo activity against experimental infection in mice caused by Trichomonas vaginalis (ED50, Therapeutical Index); conditions: for ED50: po; for ED50 / ED50 mg/kg per os mice: per os, mice, Trichomonas vaginalis infection; for in vivo anti-Trichomonas activity (in words): experimental infection in mice; for Therapeutical Index (comparison in words): mouse, in vivo
Protocol: (§1) This activity, expressed as an ED50 value, is moreover coupled with a very low toxicity, expressed as an LD50 value, which was determined substantially according to the method described by Lichtfield and Wilcoxon, Journ. Pharm. Exp. Ther., 96, 99, 1949. In representative experiments, the following results have been obtained:
(§2) which indicate that the compound of the invention is a very useful and promising anti-Trichomonas agent. This becomes even more evident if one considers its Therapeutical Index (TI). Said parameter, which is mathematically expressed by the following ratio LD50 /ED50 gives a reliable idea about the safety of a drug and, considering how it is calculated, it is clear that the higher the TI, the safer the drug is; a high value of the Therapeutical Index means in fact a low effective dose (ED50) in comparison with the lethal dose (LD50). […] As an example, the 5-isopropyl-1-methyl-2-nitroimidazole, described in U.S. Pat. No. 3,499,967 and therein mentioned as one of the most outstanding in vivo active 2-nitroimidazoles against Trichomonas vaginalis, has a Therapeutical Index of 102.
(§3) 1. In the present experiment there are compared the anti-Trichomonas in vivo activities and the Therapeutical Indexes (TI) of the compound of the invention (hereinafter referred to as compound A) and four 5-hydroxy alkyl-2-nitroimidazoles described or falling within prior art patents. In these four compounds the hydroxy group is bound to a primary or secondary carbon atom which not necessarily is linked to the imidazole nucleus.
(§4) 2. In the following set of experiments there are evaluated the variations of Therapeutical Index (positive or negative) which are observed when some 5-alkyl-2 -nitroimidazoles known from the prior art are compared with the corresponding 5-hydroxyalkyl-2-nitroimidazoles, including the new compound A. Obviously all of the compounds are tested for their in vivo activity against Trichomonas vaginalis. […] With reference to the hereinbelow reported table and the first four pair of compounds, the results clearly indicate that the variations of Therapeutical Index which are observed are slightly positive or even negative i.e., that the Therapeutical Index of the known 5-hydroxyalkyl-2-nitroimidazoles either is worse than or is substantially the same as that of the corresponding 5-alkyl compounds: this practically means that no appreciable therapeutical results have been obtained, and that, considering the last pair of substances i.e., compound K and compound A (the compound of the invention), an unrelevant or unfavorable variation of the Therapeutical Index would have to be expected as well. On the contrary, a dramatically favorable and unpredictable variation of this parameter is observed and, clearly, this effect is to be interpreted as a remarkable improvement of the therapeutical (anti-Trichomonas) properties:
(§5) 3. In the third experiment there are evaluated the effects on the Therapeutical Index of the substitution with two methyl groups of two hydrogen atoms of the methyl radical at the 5-position of compound F namely [drawing 17] in comparison with the effects on the same parameter caused by the substitution with two methyl groups of the two hydrogen atoms of the hydroxymethyl group of compound B, namely [drawing 18] The compounds are obviously tested for their anti-Trichomonas in vivo properties.

[2] = as above; conditions: mouse, in vivo, po; ratio LD50/ED50, per os mice; read-out: Therapeutical Index (TI)
Protocol: as §1, §2, §3, §4, §5

[3] = usual in vitro antibacterial tests
From the text: Though the compound of the present invention is formally embraced by the foregoing general formula, it is to be noted that in the cited Belgian Patent only concrete examples of 5-hydroxy lower alkyl substituents are reported, wherein the hydroxy lower alkyl groups are 2-hydroxyethyl or 2-hydroxypropyl, i.e. only primary or secondary alcohols are disclosed.

Compound Cn1c(CCO)cnc1[N+](=O)[O-] has an LD50 [1] of 1500 mg/kg, an ED50 (Trichomonas vaginalis) of 35 mg/kg and a selectivity ratio [2] of 43.

For COC(C)(C)c1cnc([N+](=O)[O-])n1C [Compound of formula V, 5-[(1-methoxy-1-methyl)ethyl]-1-methyl-2-nitroimidazole], the “LD50 mg/kg per os mice” value [1] was 350 mg/kg, the “in vivo anti-Trichomonas activity (in words)” value (Trichomonas vaginalis) was “valuable degree of in vivo anti-Trichomonas activity” and the “Therapeutical Index (comparison in words)” value (Trichomonas vaginalis) was “not so high as that of the compound of formula I”. It also gave an ED50 (Trichomonas vaginalis) of 2.18 mg/kg and a selectivity ratio [2] of 160.

For CCc1cnc([N+](=O)[O-])n1C [reference compound], the LD50 [1] was 372 mg/kg, the ED50 (Trichomonas vaginalis) was 9.8 mg/kg and the selectivity ratio [2] was 38.

CC(C)c1cnc([N+](=O)[O-])n1C [K, 5-isopropyl-1-methyl-2-nitroimidazole, reference compound] gave a selectivity ratio [2] of 102.

With CC(O)Cc1cnc([N+](=O)[O-])n1C (stereo not drawn) [drawing 12] the “LD50 mg/kg per os mice” value [1] was 670 mg/kg and the “ED50 mg/kg per os mice” value (Trichomonas vaginalis) was 17 mg/kg.

In the case of CC(CO)c1cnc([N+](=O)[O-])n1C (stereo not drawn) [drawing 6], the LD50 [1] is reported as 776 mg/kg, the ED50 (Trichomonas vaginalis) is reported as 20 mg/kg and the selectivity ratio [2] is reported as 38.8.

For Cn1c(C(C)(C)O)cnc1[N+](=O)[O-] [Compound A, 5-[(1-hydroxy-1-methyl)ethyl]-1-methyl-2-nitroimidazole], the LD50 [1] was 730 mg/kg, the “in vivo anti-Trichomonas activity (in words)” value (Trichomonas vaginalis) was “far highest in vivo activity” and the “in vivo anti-Trichomonas activity (in words)” value (Trichomonas vaginalis; listed as compound of the invention) was “outstanding in vivo activity”. For the same compound, the ED50 (Trichomonas vaginalis) was 2.3 mg/kg, the selectivity ratio [2] was 317 and the “antibacterial properties in vitro (in words)” value [3] was “very interesting antibacterial properties”.

For CC(O)Cc1cnc([N+](=O)[O-])n1C (stereo not drawn) [drawing 5], the LD50 [1] was 670 mg/kg, the ED50 (Trichomonas vaginalis) was 17 mg/kg and the selectivity ratio [2] was 39.4.

Work on Cn1c(CO)cnc1[N+](=O)[O-] [drawing 3] yielded an LD50 [1] of 350 mg/kg, an ED50 (Trichomonas vaginalis) of 14.1 mg/kg and a selectivity ratio [2] of 24.8.

In the case of CCCc1cnc([N+](=O)[O-])n1C [reference compound], the LD50 [1] is reported as 560 mg/kg, the ED50 (Trichomonas vaginalis) is reported as 26 mg/kg and the selectivity ratio [2] is reported as 21.6.

For Cc1cnc([N+](=O)[O-])n1C, the LD50 [1] was 246 mg/kg, the ED50 (Trichomonas vaginalis) was 10.5 mg/kg and the selectivity ratio [2] was 23.4.

In the case of CC(C)c1cnc([N+](=O)[O-])n1C [drawing 13], the “LD50 mg/kg per os mice” value [1] is reported as 265 mg/kg and the ED50 (Trichomonas vaginalis) is reported as 2.6 mg/kg.

With CC(CO)c1cnc([N+](=O)[O-])n1C (stereo not drawn) [drawing 14] the “ED50 mg/kg per os mice” value (Trichomonas vaginalis) was 20 mg/kg.

In the case of Cn1c(CO)cnc1[N+](=O)[O-] [Compound B, 5-hydroxymethyl-1-methyl-2-nitroimidazole, reference compound], the “Therapeutical Index (comparison in words)” value (Trichomonas vaginalis) is reported as “much lower than that of compound A”.
